This assay addresses PDE 4 enzyme. The assay is described as follows: PDE 4 enzyme inhibition (Scintillation Proximity Assay, enzyme purified from human polymorphonuclear leukocytes). It is filed as biochemical. Particulars: PDE 4 from human PMNs; SPA, [3H]cAMP, 40 minutes at 30° C.; read-out: IC50 (concentration required to inhibit cyclic nucleotide hydrolysis by 50%). The protocol: Human polymorphonuclear leukocyte isolation
The polymorphonuclear leukocytes (PMNs) were isolated from peripheral blood of healthy volunteers according to Boyum A. (Scand. J. Immunol., 1976, 5th suppl., 9). Briefly, the PMNs were purified by Ficoll-Paque gradient centrifugation followed by sedimentation on dextran and the erythrocyte contamination was eliminated by hypotonic lysis.
PDE 4 enzyme purification
The human PMNs were suspended in TRIS/HCl buffer (10 mM, pH 7.8) containing MgCl2 (5 mM), EGTA (4 mM), mercaptoethanol (5 mM), TRITON-X100 (1%), pepstatin A (1 μM), PMSF (100 μM) and leupeptin (1 μM), and homogenised by Polytron homogeniser. The homogenate was centrifuged at 25,000×g for 30 minutes at 4° C. and the PDE 4 enzyme was purified by ion exchange chromatography using the FPLC technique according to Schudt C. et al. (Naunyn-Schmidberg's Arch. Pharmacol., 1991, 334, 682). The supernatant was seeded on a UNO Q12 column (Bio-Rad) and the enzyme was eluted by sodium acetate linear gradient from 50 mM to 1M using a flow rate of 4.5 ml/minutes. […]
The enzyme activity was evaluated with a Scintillation Proximity Assay (SPA) kit (Amersham). […]
SPA beads (50 μl) containing 18 mM zinc sulphate were added to stop the reaction and after 20 minutes at room temperature the radioactivity was measured using a scintillation counter. […]

For `CS(=O)(=O)N1Cc2c(ccc(OC(F)F)c2OC2CCCO2)C(Cc2c(Cl)cncc2Cl)=N1` (stereo not shown) [Compound 10, 1-(3,5-dichloro-pyridin-4-ylmethyl)-3-methansulphonyl-6-difluoromethoxy-5-(tetrahydro-furan-2-yloxy)-4H-phthalazine], the IC50 is 8 ± 0.5 nM.

The values above are taken from patent publication US6340684B1, “Phthalazine derivatives as phosphodiesterase 4 inhibitors” (Zambon Group S.p.A., priority 1998, dated 2002).
